For 20 compounds, melting point and MIC results are on record in US10464926B2, “Heterobicyclic compounds and their use for the treatment of tuberculosis” (OTSUKA PHARMACEUTICAL CO., LTD., priority 2014, dated 2019).

Series [1] relates to Mycobacterium tuberculosis (M. tuberculosis Kurono). The series can be described thus: Antibacterial test (agar dilution method), M. tuberculosis Kurono. The class given is cell-based. As to conditions: Mycobacterium tuberculosis, 336 h; 7H11 agar medium, about 10^6 CFU/mL, 37° C. for 14 days; read-out: Minimum inhibitory concentration (MIC) kurono.

By melting point is commonly meant the temperature, or range, at which the solid turns liquid. The compound `O=C1CCc2c(OC[C@]3(O)CCN(c4c(F)cc(Br)cc4F)C[C@H]3O)ccc(Cl)c2N1` (relative stereo) [Example 339] returned a melting point of 195 to 198 °C. Same read-out and setting: with `O=C1CCc2c(cccc2OC[C@]2(O)CCN(c3c(F)cc(Cl)cc3F)C[C@H]2O)N1` (relative stereo) [Example 349] the figure was 233 °C. For the compound `O=c1ccc2c(OC[C@]3(O)CCN(c4ccc(Br)cc4F)C[C@H]3O)ccc(F)c2[nH]1` (relative stereo) [Example 369, 5-{[(3R*,4R*)-1-(4-Bromo-2-fluorophenyl)-3,4-dihydroxypiperidin-4-yl]methoxy}-8-fluoroquinolin-2(1H)-one], the MIC in series [1] was less than 0.39 µg/mL.

`O=c1ccc2c(OC[C@]3(O)CCN(c4c(F)cc(Cl)cc4F)C[C@H]3O)ccc(F)c2[nH]1` (relative stereo) [Example 371] gave a melting point of 232 °C. For the compound `O=C1CCc2c(OC[C@H]3CCN(c4ccc(Cl)cc4F)C[C@@H]3O)ccc(F)c2N1` (relative stereo) [Example 419, 5-{[(3R*,4R*)-1-(4-Chloro-2-fluorophenyl)-3-hydroxypiperidin-4-yl]methoxy}-8-fluoro-3,4-dihydroquinolin-2(1H)-one], the MIC in series [1] is less than 0.39 µg/mL. `O=C1CCc2c(OC[C@]3(O)CCN(c4c(F)cc(Cl)cc4F)C[C@@H]3F)ccc(F)c2N1` (relative stereo) [Example 439] gave a melting point of 223 to 224 °C.

Consider `O=C1CCc2c(OC[C@]3(O)CCN(c4c(F)cc(Cl)cc4F)C[C@H]3F)ccc(F)c2N1` (relative stereo) [Example 440], for which the melting point was in the range of 222 to 223 °C.

Compound `O=C1CCc2c(OC[C@]3(O)CCN(c4ccc(Br)cc4F)C[C@H]3O)ccc(Cl)c2N1` [Example 271] had a melting point of 183 to 184 °C.

As to `O=C1CCc2c(OC[C@]3(O)CCN(c4c(F)cc(Cl)cc4F)C[C@H]3O)cc(F)c(Cl)c2N1` [Example 278], the melting point was in the range of 192 to 194 °C.

With `O=C1CCc2c(OC[C@]3(O)CCN(c4c(F)cc(Br)cc4F)C[C@H]3O)ccc(F)c2N1` [Example 302], the melting point fell in the range of 197 to 198 °C. Take `O=C1CCc2c(OC[C@]3(O)CCN(c4c(F)cc(F)cc4Cl)C[C@H]3O)ccc(F)c2N1` [Example 304]: the melting point lay in the range of 188 to 189 °C. On the same count and under the same terms, with `O=C1CCc2c(OC[C@]3(O)CCN(c4c(F)cc(F)cc4F)C[C@H]3O)ccc(F)c2N1` [Example 306] the figure was 191 to 192 °C; with `O=C1CCc2c(OC[C@]3(O)CCN(c4c(F)cc(OCC(F)(F)F)cc4F)C[C@H]3O)ccc(F)c2N1` [Example 311], 187 °C; with `O=C1CCc2c(OC[C@]3(O)CCN(c4c(F)cc(OC(F)F)cc4F)C[C@H]3O)ccc(F)c2N1` [Example 315], 166 °C. Same read-out and setting: with `CCOc1cc(F)c(N2CC[C@@](O)(COc3ccc(F)c4c3CCC(=O)N4)[C@H](O)C2)c(F)c1` [Example 317] the figure was 176 to 178 °C; with `O=C1CCc2c(OC[C@]3(O)CCN(c4ccc(Cl)cc4F)C[C@H]3O)cc(F)c(F)c2N1` [Example 324], 192.6 to 193.4 °C. Same read-out and setting: with `O=C1CCc2c(OC[C@]3(O)CCN(c4c(F)cc(Br)cc4F)C[C@H]3O)ccc(Cl)c2N1` [Example 326] the figure was 203.6 to 203.7 °C; with `O=C1CCc2c(OC[C@]3(O)CCN(c4ccc(Cl)cc4F)C[C@H]3O)ccc(Cl)c2N1` [Example 328], 185 to 186.4 °C. Take `O=C1CCc2c(OC[C@]3(O)CCN(c4ccc(F)cc4)C[C@H]3O)ccc(F)c2N1` [Example 337]: the melting point lay in the range of 185.2 to 185.3 °C.

For `O=c1ccc2c(OC[C@]3(O)CCN(c4c(F)cc(Cl)cc4F)C[C@H]3O)ccc(F)c2[nH]1` [Example 367], the melting point was 247.4 to 247.5 °C.
